Assay results: US9914730B2, “Azaquinazoline inhibitors of Atypical protein Kinase C” (Ignyta, Inc., priority 2012, dated 2018)

Biological target: T1, full-length human PKCι (Homo sapiens, UniProt P41743)
T1 construct: Recombinant, full-length human PKCι expressed in Sf21 insect cells is also commercially available; purchased; host or cells: Sf21 insect cells
T1 sequence (P41743 1-596): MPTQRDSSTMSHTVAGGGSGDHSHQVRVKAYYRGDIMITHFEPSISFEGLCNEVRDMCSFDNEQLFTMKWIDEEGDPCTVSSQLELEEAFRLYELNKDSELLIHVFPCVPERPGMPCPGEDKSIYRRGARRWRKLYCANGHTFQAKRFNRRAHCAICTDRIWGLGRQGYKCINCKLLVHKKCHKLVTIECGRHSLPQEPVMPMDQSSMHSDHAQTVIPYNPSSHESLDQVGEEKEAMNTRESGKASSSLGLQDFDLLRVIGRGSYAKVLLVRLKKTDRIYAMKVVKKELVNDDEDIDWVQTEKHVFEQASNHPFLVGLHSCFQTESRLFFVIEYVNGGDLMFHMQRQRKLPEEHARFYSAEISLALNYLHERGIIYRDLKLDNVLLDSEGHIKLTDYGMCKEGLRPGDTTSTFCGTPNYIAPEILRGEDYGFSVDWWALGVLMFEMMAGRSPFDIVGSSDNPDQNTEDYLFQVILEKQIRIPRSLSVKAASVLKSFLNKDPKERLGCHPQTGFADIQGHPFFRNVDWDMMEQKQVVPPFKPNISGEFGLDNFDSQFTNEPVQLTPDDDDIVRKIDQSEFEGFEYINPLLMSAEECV
Assay: PKCι IC50 IMAP assay, full-length PKCι at 150 μM ATP
Type: biochemical
Settings: read-out: IC50 in IMAP assay against full length PKCi at 150 μM ATP
Text: Assays are based on the ability of PKCι to phosphorylate a commercially available peptide substrate in vitro. The peptide substrate is FAM-PKCε pseudopeptide derived peptide, and comprises the amino acid sequence 5FAM-[…]-NH2. Recombinant, full-length human PKCι expressed in Sf21 insect cells is also commercially available. Recombinant, kinase-domain human PKCι is expressed and purified in-house.
The procedure below explains how dose response curves for inhibitors of PKCι are obtained. The screen described is for a 384 well format but the assay can be adapted to 1536 or other formats as required.
Compounds to be tested are dissolved in 100% DMSO. Compounds are diluted as required to give a final concentration of 4% DMSO (v/v) in the assay. 1 μl is plated into 384 well black low-binding flat bottomed assay plates which are used immediately. Dilutions and additions of compound to assay plates are carried out using Matrix WellMate® and Matrix PlateMate® Plus liquid handling systems.
On the day of the screen PKCι/substrate working solution, and ATP working solution, are prepared in buffer containing 20 mM tris-HCl pH7.5, 10 mM MgCl2, 0.01% Triton X100, 250 μM EGTA and 1 mM DTT. The final concentration of PKCι used varies depending on the batch of protein but is typically 15 pM. The final concentration of peptide substrate in the assay is 100 nM. ATP is used at a final concentration of 150 μM or 25 μM in the assays containing full-length or kinase-domain PKCι respectively, which corresponds to five times or equal to the KM^APP for ATP for each enzyme, respectively. The final buffer concentration in the assay is 18 mM tris-HCl pH7.5, 9 mM MgCl2, 0.009% Triton X100, 225 μM EGTA and 0.9 mM DTT. Relevant controls are included, namely no compound and no enzyme. 5 μl PKCι/substrate working solution at 30 pM and 200 nM, respectively, is added to the wells, followed by 4 μl ATP working solution at 375 μM or 62.5 μM for full-length or kinase-domain PKCι respectively, using a 16 channel Matrix pipette. The reaction is allowed to incubate for 60 minutes at room temperature, before the reaction is stopped and developed by the addition of 20 μl IMAP™ development reagent (Molecular Devices). IMAP development reagent consists of 0.25% (v/v) IMAP progressive binding reagent, 17% (v/v) IMAP progressive binding buffer A and 3% (v/v) IMAP progressive binding buffer B. The plates are then incubated for 2 hours at room temperature before being read using an appropriate plate reader, for example a Molecular Devices HT Analyst or a BMG Pherastar. Plates are read using a fluorescence polarisation protocol with excitation at 485 nm and emission at 530 nm, and dichroic mirror at 505 nm.
Percentage inhibition values are calculated from fluorescence polarisation values, using the no compound and no enzyme control values as 0% and 100% inhibition, respectively. IC50 determination is performed with ExcelFit software (IDBS) using curve fit 205. Z′ factors are determined for each plate tested and are all above 0.5.

SMILES	IC50
N[C@H](CNc1nc(-c2ccncc2)nc2c(Cl)nccc12)Cc1ccccc1 [Example 11, N-[(2S)-2-amino-3-phenylpropyl]-8-chloro-2-(pyridin-4-yl)pyrido[3,4-d]-pyrimidin-4-amine]	< 0.1 µM
N[C@H](CNc1nc(-c2ccncc2)nc2cnc(Cl)cc12)Cc1ccccc1 [Example 12, N-[(2S)-2-amino-3-phenylpropyl]-6-chloro-2-(pyridin-4-yl)pyrido[3,4-d]-pyrimidin-4-amine]	< 0.1 µM
Clc1cc2c(N3CCNCC3)nc(-c3ccncc3)nc2cn1 [Example 13, 1-[6-chloro-2-(pyridin-4-yl)-pyrido[3,4-d]-pyrimidin-4-yl]piperazine]	1 to 10 µM
O[C@H](CNc1nc(-c2ccncc2)nc2cnccc12)Cc1ccccc1 [Example 15, (2S)-1-phenyl-3-{[2-(pyridin-4-yl)pyrido[3,4-d]-pyrimidin-4-yl]-amino}propan-2-ol]	1 to 10 µM
c1ccc(C[C@H]2CN(c3nc(-c4ccncc4)nc4cnccc34)CCN2)cc1 [Example 16, (3S)-3-benzyl-1-[2-(pyridin-4-yl)pyrido[3,4-d]-pyrimidin-4-yl]-piperazine]	0.1 to 1 µM
c1ccc(C[C@@H]2CN(c3nc(-c4ccncc4)nc4cnccc34)CCN2)cc1 [Example 17, (3R)-3-benzyl-1-[2-(pyridin-4-yl)-pyrido[3,4-d]-pyrimidin-4-yl]-piperazine]	1 to 10 µM
CN1CCN(c2nc(-c3ccncc3)nc3cnccc23)CC1 [Example 18, 1-methyl-4-[2-(pyridin-4-yl)-pyrido[3,4-d]-pyrimidin-4-yl]-piperazine]	10 to 40 µM
CN1CCCN(c2nc(-c3ccncc3)nc3cnccc23)CC1 [Example 19, 1-methyl-4-[2-(pyridin-4-yl)-pyrido[3,4-d]-pyrimidin-4-yl]-1,4-diazepane]	10 to 40 µM
c1ccc(C[C@H]2CN(Cc3ccccc3)CCN2c2nc(-c3ccncc3)nc3cnccc23)cc1 [Example 20, (2S)-2,4-dibenzyl-1-[2-(pyridin-4-yl)-pyrido[3,4-d]-pyrimidin-4-yl]-piperazine]	10 to 40 µM
c1cc(-c2nc(N3CCOCC3)c3ccncc3n2)ccn1 [Example 21, 4-[2-(pyridin-4-yl)pyrido[3,4-d]-pyrimidin-4-yl]morpholine]	10 to 40 µM
CC(C)(C)OC(=O)N1CCN(c2nc(-c3ccncc3)nc3cnccc23)CC1 [Example 22, tert-butyl 4-[2-(pyridin-4-yl)-pyrido[3,4-d]-pyrimidin-4-yl]-piperazine-1-carboxylate]	10 to 40 µM
CC(C)(C)OC(=O)N1CCCN(c2nc(-c3ccncc3)nc3cnccc23)CC1 [Example 23, tert-butyl 4-[2-(pyridin-4-yl)-pyrido[3,4-d]pyrimidin-4-yl]-1,4-diazepane-1-carboxylate]	10 to 40 µM
c1cc(-c2nc(N3CCSCC3)c3ccncc3n2)ccn1 [Example 24, 4-[2-(pyridin-4-yl)pyrido[3,4-d]-pyrimidin-4-yl]-thiomorpholine]	10 to 40 µM
CN(C)[C@H](CNc1nc(-c2ccncc2)nc2cnccc12)Cc1ccccc1 [Example 25, N,N-Dimethyl[(2S)-1-phenyl-3-{[2-(pyridin-4-yl)-pyrido[3,4-d]-pyrimidin-4-yl]-amino}propan-2-yl]amine]	0.1 to 1 µM

Further lines, results first:

IC50	SMILES
10 to 40 µM	CN(C[C@@H](N)Cc1ccccc1)c1nc(-c2ccncc2)nc2cnccc12 [Example 26, N-[(2S)-2-amino-3-phenylpropyl]-N-methyl-2-(pyridin-4-yl)pyrido[3,4-d]-pyrimidin-4-amine]
10 to 40 µM	O=C1CN(c2nc(-c3ccncc3)nc3cnccc23)CCN1 [Example 27, 4-[2-(pyridin-4-yl)pyrido[3,4-d]-pyrimidin-4-yl]-piperazin-2-one]
0.1 to 1 µM	NC[C@H](Cc1ccccc1)Nc1nc(-c2ccncc2)nc2cnccc12 [Example 28, N-[(2S)-1-amino-3-phenylpropan-2-yl]-2-(pyridin-4-yl)-pyrido[3,4-d]-pyrimidin-4-amine]
1 to 10 µM	c1ccc(C[C@@H]2CNCCN2c2nc(-c3ccncc3)nc3cnccc23)cc1 [Example 29, (2R)-2-benzyl-1-[2-(pyridin-4-yl)-pyrido[3,4-d]-pyrimidin-4-yl]-piperazine]
1 to 10 µM	COc1cncc2nc(-c3ccncc3)nc(N3CCN[C@@H](Cc4ccccc4)C3)c12 [Example 30, (3S)-3-benzyl-1-[5-methoxy-2-(pyridin-4-yl)-pyrido[3,4-d]-pyrimidin-4-yl]-piperazine]
0.1 to 1 µM	COc1cncc2nc(-c3ccncc3)nc(N3CCNCC3)c12 [Example 31, 1-[5-methoxy-2-(pyridin-4-yl)-pyrido[3,4-d]-pyrimidin-4-yl]-piperazine]
0.1 to 1 µM	Clc1nccc2c(N3CCNCC3)nc(-c3ccncc3)nc12 [Example 32, 1-[8-chloro-2-(pyridin-4-yl)-pyrido[3,4-d]-pyrimidin-4-yl]-piperazine]
1 to 10 µM	c1cc(-c2nc(N3CCCNCC3)c3ccncc3n2)ccn1 [Example 33, 1-[2-(pyridin-4-yl)-pyrido[3,4-d]-pyrimidin-4-yl]-1,4-diazepane]
10 to 40 µM	OCCN1CCN(c2nc(-c3ccncc3)nc3cnccc23)CC1 [Example 34, 2-{4-[2-(pyridin-4-yl)pyrido[3,4-d]-pyrimidin-4-yl]-piperazin-1-yl}-ethan-1-ol]
10 to 40 µM	O[C@H]1CCN(c2nc(-c3ccncc3)nc3cnccc23)C1 [Example 35, (3S)-1-[2-(pyridin-4-yl)pyrido[3,4-d]-pyrimidin-4-yl]-pyrrolidin-3-ol]
10 to 40 µM	O[C@@H]1CCN(c2nc(-c3ccncc3)nc3cnccc23)C1 [Example 36, (3R)-1-[2-(pyridin-4-yl)pyrido[3,4-d]-pyrimidin-4-yl]-pyrrolidin-3-ol]
< 0.1 µM	COc1cncc2nc(-c3ccncc3)nc(N3CCN[C@H](Cc4ccccc4)C3)c12 [Example 37, (3R)-3-benzyl-1-[5-methoxy-2-(pyridin-4-yl)pyrido[3,4-d]pyrimidin-4-yl]piperazine]
0.1 to 1 µM	c1ccc(C[C@H]2CNCCN2c2nc(-c3ccncc3)nc3cnccc23)cc1 [Example 38, (2S)-2-benzyl-1-[2-(pyridin-4-yl)-pyrido[3,4-d]-pyrimidin-4-yl]-piperazine]
10 to 40 µM	COC(=O)[C@@H]1C[C@H](Nc2nc(-c3ccncc3)nc3cnccc23)CN1 [Example 39, methyl (2S,4S)-4-{[2-(pyridin-4-yl)pyrido[3,4-d]-pyrimidin-4-yl]-amino}pyrrolidine-2-carboxylate]
1 to 10 µM	COC(=O)[C@@H]1C[C@H](NC(=O)[C@@H]2C[C@H](Nc3nc(-c4ccncc4)nc4cnccc34)CN2)CN1 [Example 40, methyl (2S,4S)-4-[(2S,4S)-4-{[2-(pyridin-4-yl)-pyrido[3,4-d]-pyrimidin-4-yl]-amino}pyrrolidine-2-amido]pyrrolidine-2-carboxylate]
< 0.1 µM	CN[C@H](CNc1nc(-c2ccncc2)nc2cncc(OC)c12)Cc1ccccc1 [Example 41, [(2S)-1-{[5-methoxy-2-(pyridin-4-yl)-pyrido[3,4-d]-pyrimidin-4-yl]-amino}-3-phenylpropan-2-yl](methyl)amine]
